Reference: PubChem BioAssay AID330 (DTP/NCI, 2004)
Values joined by “and” are separate entries in the source; they are usually repeats but may differ in a detail not shown here. Equal entries are not always repeated. Inconclusive results and toxic doses are left out. The calls were made as follows: active = survival T/C of 150% or more; inactive = T/C below 125% in these data.

Test system: P388 leukemia ip, CD2F1 mice, survival T/C
Assay: NCI In Vivo Anticancer Drug Screen. Data for tumor model P388 Leukemia (intraperitoneal) in CD2F1 (CDF1) mice
Settings: endpoint: median survival time, higher = longer survival
How it was run: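 Mice carrying the transplanted tumor received test compound or vehicle. Survival was recorded in each group, and the value is the treated-group measurement divided by that of the vehicle-treated control group.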

[1] = dose: 50.0 mg/kg/injection, schedule: Q01DX005 (ip), vehicle: saline with Tween-80
[2] = dose: 100.0 mg/kg/injection, schedule: Q01DX005 (ip), vehicle: saline with Tween-80
[3] = dose: 200.0 mg/kg/injection, schedule: Q01DX005 (ip), vehicle: saline with Tween-80
[4] = dose: 50.0 mg/kg/injection, schedule: Q01DX005 (ip), vehicle: Klucel (hydroxypropylcellulose) (HPC)
[5] = dose: 100.0 mg/kg/injection, schedule: Q01DX005 (ip), vehicle: Klucel (hydroxypropylcellulose) (HPC)
[6] = dose: 200.0 mg/kg/injection, schedule: Q01DX005 (ip), vehicle: Klucel (hydroxypropylcellulose) (HPC)
[7] = dose: 50.0 mg/kg/injection, schedule: Q01DX009 (ip), vehicle: saline with Tween-80
[8] = dose: 100.0 mg/kg/injection, schedule: Q01DX009 (ip), vehicle: saline with Tween-80
[9] = dose: 200.0 mg/kg/injection, schedule: Q01DX009 (ip), vehicle: saline with Tween-80
[10] = dose: 60.0 mg/kg/injection, schedule: Q01DX005 (ip), vehicle: saline with Tween-80
[11] = dose: 100.0 mg/kg/injection, schedule: Q01DX001 (ip), vehicle: saline with Tween-80
[12] = dose: 200.0 mg/kg/injection, schedule: Q01DX001 (ip), vehicle: saline with Tween-80
[13] = dose: 400.0 mg/kg/injection, schedule: Q01DX001 (ip), vehicle: saline with Tween-80
[14] = dose: 12.5 mg/kg/injection, schedule: Q01DX009 (ip), vehicle: saline
[15] = dose: 25.0 mg/kg/injection, schedule: Q01DX009 (ip), vehicle: saline
[16] = dose: 50.0 mg/kg/injection, schedule: Q01DX009 (ip), vehicle: saline
[17] = dose: 100.0 mg/kg/injection, schedule: Q01DX009 (ip), vehicle: saline

Measured: T/C

Cn1c(=O)c2c(nc(/N=C/c3ccncc3)n2C)n(C)c1=O
inactive: dose: 100.0 mg/kg/injection, schedule: Q04DX003 (ip), vehicle: saline 101 % of control | dose: 200.0 mg/kg/injection, schedule: Q04DX003 (ip), vehicle: saline 101 % of control | dose: 400.0 mg/kg/injection, schedule: Q04DX003 (ip), vehicle: saline 101 % of control

CCC1(CC)OC(=O)C1Cl (stereo not drawn)
inactive: [1] 98 % of control | [2] 113 % of control | [3] 118 % of control

CC(=O)N/N=C1\CCC2CCC1C2 (stereo not drawn)
inactive: [4] 100 % of control | [5] 99 % of control | [6] 96 % of control

CCOS(=O)(=O)CC(C)C(C)C (stereo not drawn)
inactive: [1] 98 % of control | [2] 104 % of control | [3] 101 % of control

C/C=C(\C)C(=O)OC1CC(C)(O)C(=O)C(OC(=O)/C(C)=C/C)C2(C)CCC(O)(C(C)C)C12 (stereo not drawn)
inactive: [7] 105 % of control | [8] 101 % of control | [9] 100 % of control | dose: 400.0 mg/kg/injection, schedule: Q01DX009 (ip), vehicle: saline with Tween-80 95 % of control

COc1ccc(C(c2cc(C(C)(C)C)cc(C(C)(C)C)c2O)N(C)C)cc1 (stereo not drawn)
inactive: dose: 50.0 mg/kg/injection, schedule: Q01DX005 (ip), vehicle: distilled water + alcohol 103 % of control | dose: 100.0 mg/kg/injection, schedule: Q01DX005 (ip), vehicle: distilled water + alcohol 103 % of control | dose: 200.0 mg/kg/injection, schedule: Q01DX005 (ip), vehicle: distilled water + alcohol 105 % of control

COC1OCC2(C)OC(c3ccccc3)=NC2C1O (stereo not drawn)
inactive: dose: 100.0 mg/kg/injection, schedule: Q04DX002 (ip), vehicle: Klucel (hydroxypropylcellulose) (HPC) 90 % of control | dose: 200.0 mg/kg/injection, schedule: Q04DX002 (ip), vehicle: Klucel (hydroxypropylcellulose) (HPC) 100 % of control

CN(C)C1=C(N(C)C)C1N(C)C
inactive: dose: 10.0 mg/kg/injection, schedule: Q04DX003 (ip), vehicle: saline 100 % of control | dose: 20.0 mg/kg/injection, schedule: Q04DX003 (ip), vehicle: saline 97 % of control | dose: 40.0 mg/kg/injection, schedule: Q04DX003 (ip), vehicle: saline 101 % of control

Cc1cc(N)n2c(nc3ccccc32)c1C#N
inactive: dose: 15.0 mg/kg/injection, schedule: Q01DX005 (ip), vehicle: saline with Tween-80 102 % of control | dose: 30.0 mg/kg/injection, schedule: Q01DX005 (ip), vehicle: saline with Tween-80 100 % of control | [10] 93 % of control and 97 % of control

O=C(O)c1c(-c2ccc(Cl)cc2)c(-c2ccc(Cl)cc2)nn(CCO)c1=O
inactive: dose: 25.0 mg/kg/injection, schedule: Q04DX002 (ip), vehicle: distilled water + Tween-80 101 % of control | dose: 50.0 mg/kg/injection, schedule: Q04DX002 (ip), vehicle: distilled water + Tween-80 100 % of control | dose: 100.0 mg/kg/injection, schedule: Q04DX002 (ip), vehicle: distilled water + Tween-80 102 % of control | dose: 200.0 mg/kg/injection, schedule: Q04DX002 (ip), vehicle: distilled water + Tween-80 95 % of control

CC(C)(C)C(=O)CC(O)(C(F)(F)Cl)C(F)(F)Cl
inactive: dose: 50.0 mg/kg/injection, schedule: Q04DX003 (ip), vehicle: saline with Tween-80 90 % of control | dose: 100.0 mg/kg/injection, schedule: Q04DX003 (ip), vehicle: saline with Tween-80 95 % of control | dose: 200.0 mg/kg/injection, schedule: Q04DX003 (ip), vehicle: saline with Tween-80 105 % of control

C(NC=C1c2ccccc2-c2ccccc21)=C1c2ccccc2-c2ccccc21
inactive: [4] 100 % of control | [5] 92 % of control | [6] 94 % of control

C(=C(\CCc1ccccn1)c1ccccn1)/c1cccnc1
inactive: dose: 100.0 mg/kg/injection, schedule: Q01DX001 (ip), vehicle: saline 100 % of control | dose: 200.0 mg/kg/injection, schedule: Q01DX001 (ip), vehicle: saline 101 % of control | dose: 400.0 mg/kg/injection, schedule: Q01DX001 (ip), vehicle: saline 104 % of control

COC(=O)C1(CC(C)=O)NC(=S)NC(=O)C1C#N (stereo not drawn)
inactive: dose: 60.0 mg/kg/injection, schedule: Q01DX005 (ip), vehicle: saline 100 % of control | dose: 120.0 mg/kg/injection, schedule: Q01DX005 (ip), vehicle: saline 96 % of control | dose: 240.0 mg/kg/injection, schedule: Q01DX005 (ip), vehicle: saline 97 % of control

CC1=NN(C2=NS(=O)(=O)c3ccccc3N2c2ccccc2)C(=O)C1
inactive: dose: 100.0 mg/kg/injection, schedule: Q04DX002 (ip), vehicle: saline with Tween-80 108 % of control | dose: 200.0 mg/kg/injection, schedule: Q04DX002 (ip), vehicle: saline with Tween-80 106 % of control | dose: 400.0 mg/kg/injection, schedule: Q04DX002 (ip), vehicle: saline with Tween-80 97 % of control

CSc1nc(N)c2cnn(Cc3ccccc3)c2n1
inactive: [11] 102 % of control | [12] 100 % of control | [13] 94 % of control

CCCCCCCCCCCOCC(=O)O
inactive: dose: 50.0 mg/kg/injection, schedule: Q01DX009 (ip), vehicle: Klucel (hydroxypropylcellulose) (HPC) 98 % of control | dose: 100.0 mg/kg/injection, schedule: Q01DX009 (ip), vehicle: Klucel (hydroxypropylcellulose) (HPC) 92 % of control

OCC1OC(Nc2ccccc2/C=N\O)C(O)C1O (stereo not drawn)
inactive: [14] 98 % of control | [15] 107 % of control and 96 % of control | [16] 99 % of control and 115 % of control | [17] 98 % of control and 95 % of control

[CH3][Ge]1([CH3])[CH]=CC(O)[CH2]1 (stereo not drawn)
inactive: dose: 50.0 mg/kg/injection, schedule: Q01DX005 (ip), vehicle: saline 98 % of control | dose: 100.0 mg/kg/injection, schedule: Q01DX005 (ip), vehicle: saline 100 % of control | dose: 200.0 mg/kg/injection, schedule: Q01DX005 (ip), vehicle: saline 100 % of control

O=c1[nH][nH]c(=O)n2c1cc1oc(-c3ccccc3)cc12
inactive: [10] 86 % of control | dose: 120.0 mg/kg/injection, schedule: Q01DX005 (ip), vehicle: saline with Tween-80 90 % of control | dose: 240.0 mg/kg/injection, schedule: Q01DX005 (ip), vehicle: saline with Tween-80 86 % of control

O=C(O)C1CC[N-]CC1.O=C(O)C1CC[N-]CC1.O=C(O)C1CC[N-]CC1.O=C(O)C1CC[N-]CC1.[Cl][Rh][Cl]
inactive: dose: 67.0 mg/kg/injection, schedule: Q01DX009 (ip), vehicle: saline with Tween-80 100 % of control | [8] 109 % of control | dose: 150.0 mg/kg/injection, schedule: Q01DX009 (ip), vehicle: saline with Tween-80 113 % of control

NC(=S)n1nc(-c2ccccc2)c(N=Nc2ccc(Cl)cc2Cl)c1-c1ccccc1
inactive: [1] 94 % of control | [2] 88 % of control | [3] 96 % of control

N#C/C(=C\c1c2ccccc2c(Cl)c2ccccc12)C(N)=S
inactive: dose: 6.25 mg/kg/injection, schedule: Q01DX009 (ip), vehicle: saline 90 % of control | [14] 88 % of control | [15] 90 % of control | [16] 92 % of control | [17] 97 % of control | dose: 200.0 mg/kg/injection, schedule: Q01DX009 (ip), vehicle: saline 103 % of control

CC(=O)OC1COC(Nc2cc(=O)n(C)c(=O)[nH]2)C(OC(C)=O)C1OC(C)=O (stereo not drawn)
inactive: [11] 101 % of control | [12] 100 % of control | [13] 95 % of control

COC(=O)C(Br)CCCC(Br)C(=O)OC (stereo not drawn)
inactive: dose: 25.0 mg/kg/injection, schedule: Q01DX009 (ip), vehicle: distilled water + Tween-80 97 % of control | dose: 50.0 mg/kg/injection, schedule: Q01DX009 (ip), vehicle: distilled water + Tween-80 106 % of control | dose: 100.0 mg/kg/injection, schedule: Q01DX009 (ip), vehicle: distilled water + Tween-80 103 % of control | dose: 200.0 mg/kg/injection, schedule: Q01DX009 (ip), vehicle: distilled water + Tween-80 104 % of control

CC1(C)CC(NC(=O)c2ccccc2)C(=O)O1 (stereo not drawn)
inactive: [7] 99 % of control | [8] 100 % of control | [9] 98 % of control
